“And” between values parts separate entries of the source, which are not always exact repeats. Equal entries are not always repeated.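 Cultured in 96-well plates, cells were exposed to test compound for 48 hours across five concentrations. The concentration for 50% growth inhibition is given as GI50. The concentration for full growth arrest is given as TGI.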
Tests used:
Test in all cases: NCI tumour cell line growth inhibition, 48 h
NCI/ADR-RES ovarian = test system: NCI/ADR-RES ovarian
COLO 205 colon = test system: COLO 205 colon
PC-3 prostate = test system: PC-3 prostate
TK-10 renal = test system: TK-10 renal
DU-145 prostate = test system: DU-145 prostate
UACC-257 melanoma = test system: UACC-257 melanoma
UO-31 renal = test system: UO-31 renal
RXF 393 renal = test system: RXF 393 renal
SK-OV-3 ovarian = test system: SK-OV-3 ovarian
SK-MEL-28 melanoma = test system: SK-MEL-28 melanoma

## CC1OC(OC2C(OC3CCC4(C)C(CCC5(C)C4CC=C4C6CC(C)(C)CCC6(C(=O)O)CCC45C)C3(C)CO)OCC(O)C2O)C(O)C(O)C1O (stereo not drawn)
NCI/ADR-RES ovarian
  TGI: 43.4 µM
COLO 205 colon
  TGI: 44.4 µM
PC-3 prostate
  TGI: 29.1 µM
TK-10 renal
  TGI: 40.8 µM
DU-145 prostate
  TGI: 42.3 µM
UACC-257 melanoma
  TGI: 41.2 µM
UO-31 renal
  TGI: 13.1 µM
RXF 393 renal
  TGI: 11.6 µM
SK-OV-3 ovarian
  TGI: 33.5 µM
SK-MEL-28 melanoma
  TGI: 39.8 µM

## COc1ccc(C2C(C)C(=O)C(C)C(c3ccc(OC)cc3)N2N=O)cc1 (stereo not drawn)
NCI/ADR-RES ovarian
  TGI: > 1000 µM
COLO 205 colon
  GI50: > 750 µM
  TGI: > 750 µM
PC-3 prostate
  TGI: > 1000 µM
TK-10 renal
  GI50: 147 µM
  TGI: 488 µM and 245 µM
DU-145 prostate
  TGI: 637 µM
UACC-257 melanoma
  TGI: > 1000 µM
UO-31 renal
  TGI: > 1000 µM
RXF 393 renal
  GI50: 20.7 µM and 67.6 µM
  TGI: 64.8 µM and 216 µM and 122 µM
SK-OV-3 ovarian
  GI50: > 47.5 µM and 220 µM
  TGI: > 82.5 µM and 626 µM and 980 µM
SK-MEL-28 melanoma
  GI50: > 750 µM
  TGI: > 1000 µM

## CC(C)(C)c1c2c(c(C(C)(C)C)c3c1OCN(Cc1ccccc1)C3)OCN(Cc1ccccc1)C2
NCI/ADR-RES ovarian
  TGI: 41 µM
COLO 205 colon
  TGI: 26.6 µM
PC-3 prostate
  TGI: 38 µM
TK-10 renal
  TGI: 32.5 µM
DU-145 prostate
  TGI: 59.7 µM
UACC-257 melanoma
  TGI: 29.1 µM
UO-31 renal
  TGI: 35.4 µM
RXF 393 renal
  TGI: 36.2 µM
SK-OV-3 ovarian
  TGI: > 100 µM
SK-MEL-28 melanoma
  TGI: > 100 µM

## Cc1ccc2c(c1)S(=O)(=O)c1ccc3ccccc3c1N2
NCI/ADR-RES ovarian
  TGI: > 100 µM
COLO 205 colon
  TGI: > 100 µM
PC-3 prostate
  TGI: > 100 µM
TK-10 renal
  TGI: > 100 µM
DU-145 prostate
  TGI: > 100 µM
UACC-257 melanoma
  TGI: > 100 µM
UO-31 renal
  TGI: > 100 µM
RXF 393 renal
  TGI: > 100 µM
SK-OV-3 ovarian
  TGI: > 100 µM
SK-MEL-28 melanoma
  TGI: > 100 µM

## O=C(c1ccco1)c1c(C(F)(F)F)n([O-])c2ccc(Cl)cc2[n+]1=O
NCI/ADR-RES ovarian
  GI50: 0.819 µM
  TGI: 10.3 µM
COLO 205 colon
  GI50: 1.39 µM
  TGI: 12.8 µM
PC-3 prostate
  GI50: 0.294 µM
  TGI: 1.07 µM
TK-10 renal
  GI50: 0.363 µM
  TGI: 1.02 µM
DU-145 prostate
  GI50: 0.341 µM
  TGI: 1.44 µM
UACC-257 melanoma
  GI50: 1.31 µM
  TGI: 3.08 µM
UO-31 renal
  GI50: 1.57 µM
  TGI: 2.98 µM
RXF 393 renal
  GI50: 1.38 µM
  TGI: 3.83 µM
SK-OV-3 ovarian
  GI50: 2.09 µM
  TGI: 5.63 µM
SK-MEL-28 melanoma
  GI50: 2.04 µM
  TGI: 5.71 µM

## O=C(Nc1ccc(/C=C/c2ccc(NC(=O)c3cc(S(=O)(=O)O)c4cccnc4c3O)cc2S(=O)(=O)O)c(S(=O)(=O)O)c1)c1cc(S(=O)(=O)O)c2cccnc2c1O
NCI/ADR-RES ovarian
  GI50: > 56.2 µM
  TGI: > 100 µM
COLO 205 colon
  GI50: 19.9 µM
  TGI: > 57.5 µM
PC-3 prostate
  GI50: 32.2 µM
  TGI: > 78.3 µM
TK-10 renal
  GI50: 48.4 µM
  TGI: > 71.4 µM
DU-145 prostate
  GI50: 17.7 µM
  TGI: > 50.7 µM
UACC-257 melanoma
  GI50: 25.8 µM
  TGI: > 56.3 µM
UO-31 renal
  GI50: 24.5 µM
  TGI: > 69 µM
RXF 393 renal
  GI50: 20.9 µM
  TGI: > 53.6 µM
SK-OV-3 ovarian
  GI50: > 38.9 µM
  TGI: > 100 µM
SK-MEL-28 melanoma
  GI50: 25.5 µM
  TGI: > 62.7 µM

## COc1ccc(/C=C2\C=C(c3ccccc3)N(CCc3ccccc3)C2=O)cc1OC
NCI/ADR-RES ovarian
  GI50: 9.03 µM
  TGI: 68.5 µM
COLO 205 colon
  GI50: 17.3 µM
  TGI: > 100 µM
PC-3 prostate
  GI50: 21.1 µM
  TGI: > 100 µM
TK-10 renal
  GI50: 2.28 µM
  TGI: 4.91 µM
DU-145 prostate
  GI50: 13.2 µM
  TGI: > 100 µM
UACC-257 melanoma
  GI50: 20.2 µM
  TGI: 86.8 µM
UO-31 renal
  GI50: 4.35 µM
  TGI: 20.6 µM
RXF 393 renal
  GI50: 3.64 µM
  TGI: 15.6 µM
SK-OV-3 ovarian
  GI50: 4.04 µM
  TGI: 18.8 µM
SK-MEL-28 melanoma
  GI50: 6.76 µM
  TGI: 68.1 µM

## COc1cc(C(=O)Nc2cc(OC)c3ccn(C)c3c2)cc2c1C[C@]1(C)CC[C@@H](O)C(C)(C)[C@H]1O2
NCI/ADR-RES ovarian
  GI50: 2.34 µM
  TGI: 14.7 µM
COLO 205 colon
  GI50: 1.4 µM
  TGI: 6.41 µM
PC-3 prostate
  GI50: 0.195 µM
  TGI: > 100 µM
TK-10 renal
  GI50: 3.74 µM
  TGI: 43.8 µM
DU-145 prostate
  GI50: 1.22 µM
  TGI: 29 µM
UACC-257 melanoma
  GI50: 1.63 µM
  TGI: 30.7 µM
UO-31 renal
  GI50: 0.0988 µM
  TGI: 1.17 µM
RXF 393 renal
  GI50: 0.0317 µM
  TGI: 0.485 µM
SK-OV-3 ovarian
  GI50: 0.58 µM
  TGI: 5.11 µM
SK-MEL-28 melanoma
  GI50: 1.77 µM
  TGI: 37.1 µM

## C[C@@H](Oc1ccc(C(=O)NS(=O)(=O)C(C)(C)C)cc1C(F)(F)F)c1ccc(Oc2ccccc2)cn1
NCI/ADR-RES ovarian
  GI50: 3.7 µM
  TGI: 17.2 µM
COLO 205 colon
  GI50: 2.67 µM
  TGI: 7.95 µM
PC-3 prostate
  GI50: 3.1 µM
  TGI: 16.1 µM
TK-10 renal
  GI50: 3.05 µM
  TGI: 14.7 µM
DU-145 prostate
  GI50: 3.82 µM
  TGI: 14.3 µM
UACC-257 melanoma
  GI50: 11.9 µM
  TGI: 32.7 µM
UO-31 renal
  GI50: 4.78 µM
  TGI: 19.9 µM
RXF 393 renal
  GI50: 2.25 µM
  TGI: 8.95 µM
SK-OV-3 ovarian
  GI50: 3.73 µM
  TGI: 15.2 µM
SK-MEL-28 melanoma
  GI50: 6.63 µM
  TGI: 21.8 µM

## O=c1ssc(Cl)c1Cl
NCI/ADR-RES ovarian
  TGI: > 10 µM
COLO 205 colon
  TGI: 4.32 µM
PC-3 prostate
  TGI: > 10 µM
TK-10 renal
  TGI: > 10 µM
DU-145 prostate
  TGI: > 10 µM
UACC-257 melanoma
  TGI: > 10 µM
UO-31 renal
  TGI: > 6.86 µM
RXF 393 renal
  TGI: > 10 µM
SK-OV-3 ovarian
  TGI: > 10 µM
SK-MEL-28 melanoma
  TGI: > 10 µM

## CC1(C)[C@@H](OC(=O)CCC(=O)O)CC[C@]2(C)[C@H]3C(=O)C=C4[C@@H]5C[C@@](C)(C(=O)O)CC[C@]5(C)CC[C@@]4(C)[C@]3(C)CC[C@@H]12
NCI/ADR-RES ovarian
  GI50: 81.2 µM
  TGI: 146 µM
PC-3 prostate
  GI50: 56 µM
  TGI: 127 µM
TK-10 renal
  GI50: 65.6 µM
  TGI: 124 µM
DU-145 prostate
  GI50: 58.3 µM
  TGI: 142 µM
UACC-257 melanoma
  GI50: 66.2 µM
  TGI: 91.4 µM
UO-31 renal
  GI50: 60.1 µM
  TGI: 81.6 µM
RXF 393 renal
  GI50: 50.5 µM
  TGI: 66 µM
SK-OV-3 ovarian
  GI50: 59.4 µM
  TGI: 127 µM
SK-MEL-28 melanoma
  GI50: 57.5 µM
  TGI: 85.4 µM

Reference: PubChem BioAssay (NCI)
